Experimental data as given in US20100111947A1, “PHARMACEUTICAL COMPOSITION COMPRISING ANTIBODY COMPOSITION WHICH SPECIFICALLY BINDS TO GANGLIOSIDE GM2” (KYOWA HAKKO KIRIN CO., LTD., priority 2008, published 2010).

System: KMS-11 cells (human multiple myeloma cell)
Assay: Antitumor effect against KMS-11 cells transplanted subcutaneously into SCID mice (tumor volume V/V0, T/C)
Assay type: in vivo
Conditions: SCID mouse, KMS-11 xenograft, KM8969 1 mg/kg, L-PAM 3 mg/kg, tail vein
Experimental: Ten days after the cell transplantation, a diameter of a tumor was measured with calipers, and a tumor volume was calculated using the following formula.
(Formula) Tumor volume=short diameter×short diameter […]×0.5
Individuals having the tumor volume within the range of 140 to 184 mm^3 were selected, and grouped such that the average of tumor volume was to be almost the same. Each of following administration groups A to D was administered to the mice. Incidentally, the grouped day was defined as Day 0.
C. Group administering Melphalan (hereinafter referred to as L-PAM; Sigma) solely: 3 mg/kg was administered on Day 0 and Day 7.
With time, the tumor volume was measured. The antitumor effect was evaluated by comparing average values of a tumor volume change (V/V0) when the tumor volume on Day 0 in each group was defined as V0.

Structure (SMILES): N[C@@H](Cc1ccc(N(CCCl)CCCl)cc1)C(=O)O [L-PAM, Melphalan]
- T/C (V/V0 of group divided by V/V0 of negative control group) (Day 0): 1.0000
- T/C (V/V0 of group divided by V/V0 of negative control group) (Day 4): 0.8624
- T/C (V/V0 of group divided by V/V0 of negative control group) (Day 7): 0.8354
- T/C (V/V0 of group divided by V/V0 of negative control group) (Day 10): 0.6430
- T/C (V/V0 of group divided by V/V0 of negative control group) (Day 14): 0.5255
- T/C (V/V0 of group divided by V/V0 of negative control group) (Day 17): 0.4159
- T/C (V/V0 of group divided by V/V0 of negative control group) (Day 21): 0.2881
- T/C (V/V0 of group divided by V/V0 of negative control group) (Day 24): 0.2872
- T/C (V/V0 of group divided by V/V0 of negative control group) (Day 28): 0.2348
